Results: patent US20230128114A1, “METHODS AND COMPOSITIONS FOR TREATING OR PREVENTING AN INFLAMMATORY CONDITION” (priority 2020, published 2023)

What was measured:
[1] = system: collagen-induced arthritis; assay: Collagen-induced arthritis; assay type: in vivo, Lewis rats; set-up: key to Clinical score Day 24, relative reduction / Pannus score, relative reduction / Total histology score, relative reduction: fractional reduction vs vehicle control, sham-baseline subtracted; conditions: for Clinical score Day 24, relative reduction / Pannus score, relative reduction / Paw volume Day 24, relative reduction / Total histology score, relative reduction / Relative reduction in serum cytokine levels: IL-1β / Relative reduction in serum cytokine levels: IL-6: CBD 1 mg/kg, HCQ 2.5 mg/kg, alone or combined; for Clinical score Day 24, relative reduction / Pannus score, relative reduction / Paw volume Day 24, relative reduction / Total histology score, relative reduction: observed
Procedure: Female Lewis rats were challenged with porcine type-II collagen with Freund's adjuvant on Day 1 (0.2 mg/0.2 mL/rat) by subcutaneous injection at the base of the tail to induce arthritis. A booster injection at 0.1 mg/0.1 mL/rat) was administered on Day 7. On Day 16, rats were allocated into groups of six based on hind paw volume, with animals allocated into groups to provide a similar distribution of hind paw volumes.
Vehicle and active agents (i.e., CBD and hydroxychloroquine) alone or in combination were administered intraperitoneally (IP) once a day starting from Day 17 to Day 30, i.e., for a total of 14 consecutive days.
Disease was assessed by measuring hind paw volume with plethysmometer and using a qualitative severity score system as outlined in Table 32 on Day 1, 7, 10, 14, 16, 18, 20, 22, 24, 26, 28 and 30.
Post-termination on Day 30, blood was collected from all rats and analysed for levels of the inflammatory cytokines IL-1β, IL-6 and TNF-α by ELISA. Both hind paws were harvested, weighed and formalin-fixed for histopathology. Tissue was assessed to evaluate cartilage and bone destruction by pannus formation and mononuclear cell infiltration in synovial tissues according to the scoring matrices set out in Tables 33 and 34. A total histology score, being the sum of the pannus formation and mononuclear cell infiltration score, was also calculated.
For synergy analysis, data were baseline subtracted using sham treated […] (i.e., no collagen injection), before normalising the values relative to vehicle control. Synergy was calculated using the statistical methods described elsewhere herein.

TNBS-induced colitis = assay: TNBS-induced colitis; assay type: in vivo, BALB/c mice; conditions: for Relative reduction in Colon to body weight ratio / Relative reduction in Total Colitis Index / Macroscopic damage score, relative reduction / Stool consistency score, relative reduction / MPO, relative reduction: HCQ 2.5 mg/kg, alone or combined; for Relative reduction in Total Colitis Index: histology of distal colon; for Macroscopic damage score, relative reduction / Stool consistency score, relative reduction / MPO, relative reduction: observed; for MPO, relative reduction: colon tissue
Text: Male BALB/c were used as an in vivo model of colitis, induced by intracolonic administration of 2,4,6-trinitrobenzene sulfonic acid (TNBS) in 50% ethanol, as previously described by Antoniou et al. (2016, Annals of Medicine and Surgery, 11: 9-15). Briefly, the ethanol disrupts the intestinal barrier, permitting TNBS to interact with colon proteins. Interaction of TNBS with high-molecular weight proteins renders them immunogenic, leading to Th1 mediated inflammation, which is causative of symptoms include inconsistent stool formation and blood in the faeces.
Vehicle and active agents (i.e., CBD and hydroxychloroquine) alone or in combination were administered intraperitoneally (IP) once a day starting from Day 1 (i.e., 24 hours before TNBS) to Day 4, for a total of 4 consecutive days (Days 1-4). On the Day of TNBS challenge (i.e., Day 2), test articles and vehicle were given 2 hrs before TNBS.
Colon tissues were harvested in all animals at termination. Colon samples were taken at 0.5, 2, and 3.5 cm from the anus, fixed in formalin, and then embedded in paraffin blocks. Four-micrometer tissue sections were cut and stained with H&E for histological analysis in accordance with the method of Dieleman et al. (1998, Clinical Experimental Immunology, 114: 385-391). Histological criteria included: abnormalities of mucosal architecture, extent of inflammation, erosion or ulceration, epithelial regeneration, and the percentage involvement by the disease process. The scoring was based on the findings of the observers by examining three sections from each colon per animal. Total score for colitis (Total Colitis Index) were added, resulting in a combined histological score range from 0 to 60.
Other endpoint measures of stool consistency score (i.e., 0—normal stools, 1, soft but still formed stools, 2—very soft stools, 3—diarrhoea), faecal occult blood score (i.e., 0-negative hemoccult, 1—positive hemoccult, 2—blood traces in stool visible, 3—rectal bleeding), colon weight, colon macroscopic damage score (a composite of adhesions, strictures, ulcers/inflammations and wall thickness) and myeloperoxidase levels in the colon tissue were also assessed. The data from each of these endpoints was baseline subtracted using the equivalent measures from sham treated mice (i.e., no TNBS) and reduction in any measure calculated as a relative reduction. Synergy was calculated using the statistical methods described elsewhere herein.

[2] = HCQ 25 mg/kg alone vs CBD 1 mg/kg + HCQ 2.5 mg/kg
[3] = HCQ 25 mg/kg alone vs CBD 1 mg/kg + HCQ 2.5 mg/kg, serum

SMILES | Clinical score Day 24, relative reduction [1] | Pannus score, relative reduction [1] | Paw volume Day 24, relative reduction [1] | Total histology score, relative reduction [1] | Relative reduction in serum cytokine levels: IL-1β ([1]; serum) | Relative reduction in serum cytokine levels: IL-6 ([1]; serum) | Relative reduction in Colon to body weight ratio (TNBS-induced colitis; CBD 1 mg/kg) | Relative reduction in Total Colitis Index (TNBS-induced colitis; CBD 1 mg/kg) | Macroscopic damage score, relative reduction (TNBS-induced colitis; CBD 1 mg/kg) | Stool consistency score, relative reduction (TNBS-induced colitis; CBD 1 mg/kg) | MPO, relative reduction (TNBS-induced colitis; CBD 1 mg/kg) | also measured
CCN(CCO)CCCC(C)Nc1ccnc2cc(Cl)ccc12 (stereo not drawn) [HCQ] | 0.18 | 0.07 | 0.04 | 0.15 | 0.37 | 0.51 | 0.287 | 0.27 | 0.05 | 0.00 | 0.00 | Clinical score Day 24, reduction in disease severity [1, 2]: 0.21; Clinical score Day 30, reduction in disease severity [1, 2]: 0.26; Mononuclear cell infiltration, reduction in disease severity [1, 2]: 0.24; Pannus score, reduction in disease severity [1, 2]: 0.28; Paw volume Day 24, reduction in disease severity [1, 2]: 0.10; Paw volume Day 30, reduction in disease severity [1, 2]: 0.20; Total histology score, reduction in disease severity [1, 2]: 0.26; IL-1B, reduction [1, 3]: 0.25; IL-6, reduction [1, 3]: 0.36; Colon tissue histology (H&E, 100×), FIG. 3 (TNBS-induced colitis; hydroxychloroquine 2.5 mg/kg): mild abnormality, cyctic dilation and aberrant crypts
C=C(C)[C@@H]1CCC(C)=C[C@H]1c1c(O)cc(CCCCC)cc1O [CBD, cannabidiol] | 0.21 | 0.07 | 0.04 | 0.11 | 0.31 | 0.50 | 0.373 | 0.25 | 0.10 | 0.17 | 0.34 | Colon tissue histology (H&E, 100×), FIG. 3 (TNBS-induced colitis; CBD 1 mg/kg): inflammatory cell infiltration in submucosal edema
